Columns and labels:
[1] = test system: yeast; assay: Final proofing time of dough containing the additive; assay type: cell-based; details: 6.5 grams additive in dough; final proofing at 40° C. and relative humidity of 80%; time of rising to a specific maximum volume
Description: Then a dough comprising the following ingredients was prepared: [table] Then a further additive was mixed with the above-mentioned dough: The four above-mentioned doughs were mixed for half a minute at slow speed in a McDuffy mixer and then for 8.5 minutes at high speed in the same mixer. The dough temperature was 26° C. The resting time was 2 minutes (at room temperature). After said resting time 420 grams of each dough was taken, and the doughs (each of 420 grams) were then rounded up softly by hand. The initial proofing time was 6 minutes (at room temperature), after which the doughs were moulded into a certain baking form. The final proofing time (at 40° C. and a relative humidity of 80%) was determined, which appeared to be dependent on the type of further additive as contained in the four above-mentioned doughs. With “final proofing time” it is herein meant the time period of rising the dough, before baking, to a certain extent being a specific maximum volume. After this final proofing the doughs were baked for 20 minutes in an oven at 210° C. (top oven temperature) and at 230° C. (bottom oven temperature). The four bread products as obtained were then stored at room temperature (and at a relative humidity of 80%). During 1 month it was determined by means of visual observation whether or not moulds were formed on the four bread products.

[2] = test system: moulds; assay: Mould formation on stored bread product (visual observation); assay type: cell-based; details: bread stored at room temperature, relative humidity of 80%, visual observation during 1 month
Description: The four above-mentioned doughs were mixed for half a minute at slow speed in a McDuffy mixer and then for 8.5 minutes at high speed in the same mixer. The dough temperature was 26° C. The resting time was 2 minutes (at room temperature). After said resting time 420 grams of each dough was taken, and the doughs (each of 420 grams) were then rounded up softly by hand. The initial proofing time was 6 minutes (at room temperature), after which the doughs were moulded into a certain baking form. The final proofing time (at 40° C. and a relative humidity of 80%) was determined, which appeared to be dependent on the type of further additive as contained in the four above-mentioned doughs. With “final proofing time” it is herein meant the time period of rising the dough, before baking, to a certain extent being a specific maximum volume. After this final proofing the doughs were baked for 20 minutes in an oven at 210° C. (top oven temperature) and at 230° C. (bottom oven temperature). The four bread products as obtained were then stored at room temperature (and at a relative humidity of 80%). During 1 month it was determined by means of visual observation whether or not moulds were formed on the four bread products.

## CCC(=O)[O-].CCC(=O)[O-].[Ca+2] [Comparative, calcium propionate]
[1]
  Final proofing time of dough: 90 min
[2]
  Mould formation on bread product: no

— patent US20060198925A1, “Food preservative” (priority 2003, published 2006)
